Assay results taken from PMC2855385 (Biochimica et biophysica acta, 2009).
Like-named read-outs stand apart in the source and are kept apart here.

What was measured:
[1] = biological target: T1, E. coli peptide deformylase (PDFEc) (Escherichia coli, UniProt P0A6K3); assay type: biochemical; conditions: for Initial rate: AMT 500 µM; for remaining activity at 500 µM: read-out: % of control, AMT 500 µM
[2] = biological target: T1, E. coli peptide deformylase (PDFEc); assay: Slow-binding inhibition of PDFEc, kobs as a function of inhibitor concentration; assay type: biochemical
[3] = solvent dimethylformamide, 1 week post
[4] = solvent ethanol, more than 2 days incubation

T1 sequence (P0A6K3 whole entry): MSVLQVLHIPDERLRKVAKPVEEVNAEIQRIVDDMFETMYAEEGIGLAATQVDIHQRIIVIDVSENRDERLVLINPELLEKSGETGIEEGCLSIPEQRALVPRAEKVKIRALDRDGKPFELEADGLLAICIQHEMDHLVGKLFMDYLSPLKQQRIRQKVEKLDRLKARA

Question: Which “initial rate of the enzyme catalyzed reaction versus control” value ([1]; 500 µM AMT incubated in DMF for 30 min) does the source give for `Nc1nnc(S)s1` [AMT, 2-amino-5-mercapto-1,3,4-thiadiazole] here?
Answer: The value was “barely lower than that of the control”.

Question: And the Initial rate ([1]; solvent acetonitrile, more than 2 days incubation)?
Answer: Its Initial rate is 16.3 mOD min^−1.

Question: And the Initial rate [1, 3]?
Answer: The Initial rate was 7.9 mOD min^−1.

Question: And the Initial rate ([1]; solvent dimethylformamide, tested immediately)?
Answer: Its Initial rate is 17.0 mOD min^−1.

Question: What about the Initial rate ([1]; solvent dimethylsulfoxide, more than 2 days incubation) of the same compound?
Answer: The Initial rate was 15.9 mOD min^−1.

Question: And the Initial rate [1, 4]?
Answer: The Initial rate was 16.9 mOD min^−1.

Question: And the “inhibitory effect on PDFEc” value ([1]; AMT freshly prepared in DMF, or dissolved in any other solvent and aged at 25 °C for any length of time)?
Answer: The value was “No inhibitory effect”.

Question: And the “inhibition of PDFEc” value ([1]; AMT incubated with 0.06% H2O2 in buffer)?
Answer: The value was “no inhibition”.

Question: And the remaining activity at 500 µM [1, 3]?
Answer: Its remaining activity at 500 µM is 47%.

Question: And the remaining activity at 500 µM [1, 4]?
Answer: The remaining activity at 500 µM was 100%.

Question: What about the “enhancement of apparent binding affinity by the slow-binding step (Ki / Ki^*)” value [2] of the same compound?
Answer: The value was “about 30 fold”.
